Experimental data as given in ChEMBL document CHEMBL4400546, “A Cinchona Alkaloid Antibiotic That Appears To Target ATP Synthase in Streptococcus pneumoniae” (J Med Chem, 2019).

Experiments:
[1] = Drug level in ICR mouse liver microsomes treated with 6-Cyclobutoxy-(R)-4-[((1S,2S,4S,5Z)-5-ethylidene-1-azabicyclo-[2.2.2]octan-2-yl)hydroxymethyl]quinoline at 10 uM preincubated with NADPH for 10 mins and measured after 90 mins by LC-MS/MS analysis; type: ADME, Microsome; conditions: 1.5 h
[2] = Drug level in ICR mouse liver microsomes treated with 6-Cyclobutoxy-(R)-4-[((1S,2S,4S,5E)-5-ethylidene-1-azabicyclo[2.2.2]octan-2-yl)hydroxymethyl]quinoline at 10 uM preincubated with NADPH for 10 mins and measured after 90 mins by LC-MS/MS analysis; type: ADME, Microsome; conditions: 1.5 h
[3] = Cytotoxicity against human HepG2 cells assessed as reduction in cell viability after 48 hrs by Alamar Blue assay; type: cell-based
Streptococcus pneumoniae = assay: Antibacterial activity against Streptococcus pneumoniae D39 after 20 hrs by CLSI-based microdilution method; type: functional; conditions: D39, 20 h

Row | SMILES | Drug uptake [1] | Drug uptake [2] | CC50 at 48 h [3] | MIC (Streptococcus pneumoniae)
1 | C/C=C1\C[N@]2CC[C@H]1C[C@H]2C(=O)c1ccnc2ccc(O)cc12 | Active | Active |  | 
2 | C#CCON=C1C[N@]2CC[C@H]1C[C@H]2[C@H](O)c1ccnc2ccc(OC)cc12 |  |  | > 100 µM | 175 µM
3 | CC=C1C[N@]2CC[C@H]1C[C@H]2[C@H](O)c1ccnc2ccc(OC(C)C)cc12 |  |  | 54 µM | 1 µM
4 | COc1ccc2nccc([C@@H](O)[C@@H]3C[C@@H]4CC[N@@]3C/C4=N/OC(C)C)c2c1 |  |  | > 100 µM | 43 to 86 µM
5 | C/C=C1\C[N@]2CC[C@H]1C[C@H]2[C@H](O)c1ccnc2ccc(O[C@H]3O[C@H](C(=O)O)[C@@H](O)[C@H](O)[C@H]3O)cc12 | Active | Active |  | 
6 | CC[C@H]1C[N@]2CC[C@H]1C[C@H]2[C@H](O)c1ccnc2ccc(OC(C)C)cc12 |  |  | 86 µM | 11 µM
7 | CCOC(=O)CCCON=C1C[N@]2CC[C@H]1C[C@H]2[C@H](O)c1ccnc2ccc(OC)cc12 |  |  | > 100 µM | 299 µM
8 | COC(=O)CCCON=C1C[N@]2CC[C@H]1C[C@H]2[C@H](O)c1ccnc2ccc(OC)cc12 |  |  | > 100 µM | 299 µM
9 | CC[C@H]1CN2CC[C@H]1C[C@H]2[C@H](O)c1ccnc2ccc(O)cc12 |  |  | > 100 µM | 204 µM
10 | CC=C1C[N@]2CC[C@H]1C[C@H]2[C@H](O)c1ccnc2ccc(OCC(F)(F)F)cc12 |  |  | > 100 µM | 5 µM
11 | CC=CC1C[N@]2CC[C@H]1C[C@H]2[C@H](O)c1ccnc2ccc(OC)cc12 (stereo partly drawn) |  |  | > 100 µM | 12 µM
12 | CC[C@H]1C[N@]2CC[C@H]1C[C@H]2[C@H](O)c1ccnc2ccc(OCC(F)(F)F)cc12 |  |  | 72 µM | 10 µM
13 | CC=C1C[N@]2CC[C@H]1C[C@H]2[C@H](O)c1ccnc2ccc(OC)cc12 |  |  | > 100 µM | 12 µM
14 | CON=C1C[N@]2CC[C@H]1C[C@H]2[C@H](O)c1ccnc2ccc(OC)cc12 |  |  | > 100 µM | 375 to 750 µM
15 | C=CCON=C1C[N@]2CC[C@H]1C[C@H]2[C@H](O)c1ccnc2ccc(OC)cc12 |  |  | 51 µM | 174 µM
16 | CC[C@H]1CN2CC[C@H]1C[C@H]2[C@H](O)c1ccnc2ccc(OC)cc12 [HYDROQUININE] |  |  | > 100 µM | 98 µM
17 | O=C(c1ccnc2ccc(OC3CCC3)cc12)[C@@H]1C[C@@H]2CC[N@@]1C/C2=C\CO | Active | Active |  | 
18 | COc1ccc2nccc([C@@H](O)[C@@H]3C[C@@H]4CC[N@@]3CC4=NOCc3ccccc3)c2c1 |  |  | > 100 µM | 77 µM
19 | CC=C1C[N@]2CC[C@H]1C[C@H]2[C@H](O)c1ccnc2ccc(OC(C)CO)cc12 (mixture of isomers) |  |  | > 100 µM | 5 µM
20 | CC=C1C[N@]2CC[C@H]1C[C@H]2[C@H](O)c1ccnc2ccc(OC3CCCC3)cc12 |  |  | 48 µM | 5 µM
21 | C=C[C@H]1C[N@@]2CC[C@H]1C[C@H]2[C@H](O)c1ccnc2ccc(OC)cc12 [QUININE] |  |  | > 100 µM | 
22 | OC/C=C1\C[N@]2CC[C@H]1C[C@H]2[C@H](O)c1ccnc2ccc(OC3CCC3)cc12 | Active | Active |  | 
23 | COc1ccc2nccc([C@@H](O)[C@@H]3C[C@@H]4CC[N@@]3C[C@@H]4[C@H](O)CO)c2c1 |  |  | > 100 µM | > 357 µM
24 | CC=C1C[N@]2CC[C@H]1C[C@H]2[C@H](O)c1ccnc2ccc(OCc3ccccc3)cc12 |  |  | 47 µM | 40 µM
25 | C=C[C@H]1CN2CC[C@@H]1C[C@H](F)[C@H]2c1ccnc2ccc(OC)cc12 |  |  | > 100 µM | 392 µM
26 | CCON=C1C[N@]2CC[C@H]1C[C@H]2[C@H](O)c1ccnc2ccc(OC)cc12 |  |  | > 100 µM | 360 µM

Row | SMILES | Drug uptake [1] | Drug uptake [2] | CC50 at 48 h [3] | MIC (Streptococcus pneumoniae)
27 | COc1ccc2nccc([C@@H](O)[C@@H]3C[C@@H]4CC[N@@]3CC4=O)c2c1 |  |  | > 100 µM | > 410 µM
28 | COc1ccc2nccc([C@@H](O)[C@@H]3C[C@@H]4CC[N@@]3C/C4=N/OCC3CC3)c2c1 |  |  | > 100 µM | 42 to 84 µM
29 | COc1ccc2nccc([C@@H](O)[C@@H]3C[C@@H]4CC[N@@]3C/C4=N/OC3CCCC3)c2c1 |  |  | > 100 µM | 40 to 81 µM
30 | CC[C@H]1C[N@]2CC[C@H]1C[C@H]2[C@H](O)c1ccnc2ccc(OC3CCCC3)cc12 |  |  | > 100 µM | 5 µM
31 | C/C=C1\CN2CC[C@H]1C[C@H]2[C@H](O)c1ccnc2ccc(O)cc12 | Active | Active |  | 
32 | COc1ccc2nccc([C@@H](O)[C@@H]3C[C@@H]4CC[N@@]3CC4=NOC3CCC3)c2c1 |  |  | > 100 µM | 84 µM
33 | C=CCOc1ccc2nccc([C@@H](O)[C@@H]3C[C@@H]4CC[N@@]3C[C@@H]4CC)c2c1 |  |  | 78 µM | 11 to 22 µM
34 | CC=C1C[N@]2CC[C@H]1C[C@@H]2[C@H](F)c1ccnc2ccc(OC)cc12 |  |  | > 100 µM | 392 µM
35 | O=c1cc([C@@H](O)[C@@H]2C[C@@H]3CC[N@@]2C/C3=C\CO)c2cc(OC3CCC3)ccc2[nH]1 | Active | Active |  | 
36 | CCCO/N=C1/C[N@]2CC[C@H]1C[C@H]2[C@H](O)c1ccnc2ccc(OC)cc12 |  |  | > 100 µM | 86 µM
37 | CC=C1C[N@]2CC[C@H]1C[C@H]2[C@H](O)c1ccnc2ccc(OCCC)cc12 |  |  | 51 µM | 3 to 6 µM
38 | CC[C@H]1C[N@]2CC[C@H]1C[C@H]2[C@H](O)c1ccnc2ccc(OCc3ccccc3)cc12 |  |  | 76 µM | 16 to 32 µg/mL
39 | CC[C@H]1C[N@]2CC[C@H]1C[C@@H]2[C@H](F)c1ccnc2ccc(OC)cc12 |  |  | > 100 µM | > 390 µM
40 | COc1ccc2nccc([C@@H](O)[C@@H]3C[C@@H]4CC[N@@]3CC4=NOCC(F)(F)F)c2c1 |  |  | > 100 µM | > 313 µM
41 | COc1ccc2nccc([C@@H](O)[C@@H]3C[C@@H]4CC[N@@]3C/C4=N/O)c2c1 |  |  | > 100 µM | > 391 µM
42 | CC=C1C[N@]2CC[C@H]1C[C@@H]2[C@@H](O)c1ccnc2ccc(OC)cc12 |  |  | > 100 µM | > 395 µM
43 | C=CCOc1ccc2nccc([C@@H](O)[C@@H]3C[C@@H]4CC[N@@]3CC4=CC)c2c1 |  |  | 54 µM | 4 µM
44 | CC[C@H]1C[N@]2CC[C@H]1C[C@H]2[C@H](O)c1ccnc2ccc(OCC3CC3)cc12 |  |  | 87 µM | 22 µM
45 | CC=C1C[N@]2CC[C@H]1C[C@H]2[C@H](O)c1ccnc2ccc(OCC)cc12 |  |  | > 100 µM | 1 µM
46 | CC=C1C[N@]2CC[C@H]1C[C@H]2[C@H](O)c1ccnc2ccc(OCCCC)cc12 |  |  | 27 µM | 11 µM
47 | CC=C1C[N@]2CC[C@H]1C[C@H]2[C@H](O)c1ccnc2ccc(OCC3CC3)cc12 |  |  | > 100 µM | 5 µM
48 | CC[C@H]1C[N@]2CC[C@H]1C[C@H]2[C@H](O)c1ccnc2ccc(OC3CCC3)cc12 |  |  | 51 µM | 5 µM
49 | CCCCON=C1C[N@]2CC[C@H]1C[C@H]2[C@H](O)c1ccnc2ccc(OC)cc12 |  |  | > 100 µM | 21 to 42 µM
50 | CCCCOc1ccc2nccc([C@@H](O)[C@@H]3C[C@@H]4CC[N@@]3C[C@@H]4CC)c2c1 |  |  | 41 µM | 22 µM
51 | CCCOc1ccc2nccc([C@@H](O)[C@@H]3C[C@@H]4CC[N@@]3C[C@@H]4CC)c2c1 |  |  | 57 µM | 11 µM
52 | CC=C1C[N@]2CC[C@H]1C[C@H]2[C@@H](F)c1ccnc2ccc(OC)cc12 |  |  | > 100 µM | > 392 µM
